Reference: patent publication US8637557B2, “Aminothiazole derivative” (Taisho Pharmaceutical Co., Ltd, priority 2009, dated 2014)
pIC50: −log10 of the molar value. Like-named read-outs stand apart in the source and are kept apart here.

Molecular target: T1, human PI 3-kinase p120γ (Homo sapiens, UniProt P48736)
T1 construct: purchased Millipore Corporation
Test: PI 3-kinase p120γ enzyme activity inhibition test
Assay type: biochemical
Details: ATP 10.0 μM, PIP2-PS 5.0 μM, 30° C., 2 hours
Procedure: Using human PI 3-kinase p120γ (manufactured by Millipore Corporation) and a mixed micellized product (hereinafter abbreviated as PIP2-PS) of the substrate thereof, L-a-Phosphatidyl-D-myo-inositol-4,5-bisphosphate (product of Calbiochem, hereinafter abbreviated as PIP2), and L-a-Phosphatidyl-L-Serine (manufactured by Sigma, hereinafter abbreviated as PS), the compound of the present invention was examined for the inhibitory action on PI3 Kinase p120γ enzyme activity (Km=8.9 μM for ATP, Km=4.0 μM for PIP2-PS).
PIP2-PS was prepared by mixing 500 μM of PIP2 and 2.5 nM of PS and sonicating the mixture for 40 minutes while ice cooling to cause micellization. ATP (final concentration 10.0 μM), [γ-^33P] ATP (final concentration 10 μCi/ml), PIP2-PS (final concentration 5.0 μM) and DMSO solutions of the test compound in different concentrations (compound final concentration 1.0×10^−5 to 2.4×10^−12 M, DMSO final concentration 0.1%) were added to PI 3-kinase p120γ, stirred and reacted at 30° C. for 2 hours. Using Phospholipid-Coated FlashPlate Microplates, 96-Well and Phospholipid FlashPlate Coating Buffer (both manufactured by PerkinElmer Co., Ltd.), PIP2-PS and phosphorylated PIP2-PS were allowed to be adsorbed to the well wall of the plate and collected. The well was washed twice with PBS (Phosphate-Buffered Saline) and dried. The radioactivity was measured using Top Count NXT (manufactured by PerkinElmer Co., Ltd.), whereby the phosphorylated amount (a) of PIP2-PS at the time of compound addition was calculated.
The same procedure was carried out in the absence of the test compound and the phosphorylated amount (b) of PIP2-PS was calculated. Further, the same procedure was carried out in the absence of both of the substrate and the test compound, and the PIP2-PS phosphorylated amount (c) of the background was calculated.
The PI3 Kinase p120γ enzyme activity suppression rate of the compound was calculated by the following formula. Suppression rate (%)=[1−(a−c)/(b−c)]×100
More specifically, using the suppression rate by the test compound of different concentrations, the IC50 value was calculated according to the dose-dependent inhibition curve analyzed by a data analysis software Origin (Lightstone Corp.) and used as the inhibitory activity index.

[1] = read-out: PI3Kγ (IC50 value class)

T1 sequence (P48736 whole entry): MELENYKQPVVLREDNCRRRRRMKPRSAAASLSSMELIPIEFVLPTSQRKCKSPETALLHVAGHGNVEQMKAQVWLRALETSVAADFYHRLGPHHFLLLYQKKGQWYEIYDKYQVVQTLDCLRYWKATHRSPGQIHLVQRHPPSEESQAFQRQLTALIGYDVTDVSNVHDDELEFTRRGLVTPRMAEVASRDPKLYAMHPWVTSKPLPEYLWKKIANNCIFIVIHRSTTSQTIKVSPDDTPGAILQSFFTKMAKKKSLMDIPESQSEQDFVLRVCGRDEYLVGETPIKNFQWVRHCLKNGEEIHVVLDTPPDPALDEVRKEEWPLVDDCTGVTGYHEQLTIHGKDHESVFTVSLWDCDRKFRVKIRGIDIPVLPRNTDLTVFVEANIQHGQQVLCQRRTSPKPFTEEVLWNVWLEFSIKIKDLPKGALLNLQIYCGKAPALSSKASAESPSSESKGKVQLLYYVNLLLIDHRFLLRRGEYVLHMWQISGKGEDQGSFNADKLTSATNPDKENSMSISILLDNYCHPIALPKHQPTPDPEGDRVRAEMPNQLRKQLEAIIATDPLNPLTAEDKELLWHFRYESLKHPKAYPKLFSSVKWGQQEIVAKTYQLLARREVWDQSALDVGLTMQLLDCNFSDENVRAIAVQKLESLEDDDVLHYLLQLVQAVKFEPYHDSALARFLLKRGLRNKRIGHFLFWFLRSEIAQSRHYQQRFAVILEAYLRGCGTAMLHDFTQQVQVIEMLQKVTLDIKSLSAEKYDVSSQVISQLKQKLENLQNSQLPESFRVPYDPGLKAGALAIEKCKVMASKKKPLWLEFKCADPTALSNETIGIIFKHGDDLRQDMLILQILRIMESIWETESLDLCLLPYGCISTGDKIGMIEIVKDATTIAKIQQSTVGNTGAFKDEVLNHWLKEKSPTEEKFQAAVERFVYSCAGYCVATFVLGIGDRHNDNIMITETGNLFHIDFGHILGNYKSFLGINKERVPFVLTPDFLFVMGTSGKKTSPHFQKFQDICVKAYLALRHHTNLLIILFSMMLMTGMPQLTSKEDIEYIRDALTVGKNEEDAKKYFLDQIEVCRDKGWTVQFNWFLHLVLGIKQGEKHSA

pIC50 (read-out: IC50 value) | pIC50 [1] | Compound
5.14 | 5.00 to 6.30 | CC(=O)Nc1nc(C)c(-c2nc(-c3ccc(OCc4cccnc4)nc3)no2)s1 [Example 5]
 | 6.30 to 7.00 | CC(=O)Nc1nc(C)c(-c2nc(CCC(C)(C)O)no2)s1 [Example 47]
 | > 7.00 | CCOC(=O)CC(C)NC(=O)Nc1nc(C)c(-c2nc(-c3cccnc3)no2)s1 (stereo not shown) [Example 143]
 | 5.00 to 6.30 | CC(=O)Nc1nc(C)c(-c2nc(CC(C)(C)CN)no2)s1 [Example 43]
 | > 7.00 | CCC(O)C(C)(C)Cc1noc(-c2sc(NC(C)=O)nc2C)n1 (stereo not shown) [Example 97]
 | 6.30 to 7.00 | CC(=O)Nc1nc(C)c(-c2nc(CC(C)O)no2)s1 (stereo not shown) [Example 38]
 | 6.30 to 7.00 | CC(=O)Nc1nc(C)c(-c2nc(Cc3cccc(O)c3)no2)s1 [Example 49]
 | > 7.00 | Cc1nc(N)sc1-c1nc(CC(F)(F)F)no1 [Example 146]
 | 5.00 to 6.30 | CC(=O)Nc1nc(C)c(-c2nc(CCCOC(C)=O)no2)s1 [Example 30]
 | > 7.00 | Cc1nc(NC(=O)NCC(C)O)sc1-c1nc(-c2cccc(O)c2)no1 (stereo not shown) [Example 174]
 | > 7.00 | Cc1nc(NC(=O)NCCc2cn(C(C)C)cn2)sc1-c1nc(CC(C)(C)CO)no1 [Example 162]
 | > 7.00 | Cc1nc(NC(=O)NCCC(=O)OC(C)C)sc1-c1nc(-c2cccnc2)no1 [Example 140]
 | > 7.00 | CC(=O)Nc1nc(C)c(-c2nc([C@H](O)C(C)(C)C)no2)s1 [Example 69]
 | > 7.00 | CC(=O)Nc1nc(C)c(-c2nc(-c3cncnc3)no2)s1 [Example 3, N-{4-methyl-5-[3-(pyrimidin-5-yl)-1,2,4-oxadiazol-5-yl]-1,3-thiazol-2-yl}acetamide]
 | > 7.00 | Cc1nc(NC(=O)NCCC(=O)OCCO)sc1-c1nc(-c2cccnc2)no1 [Example 151]
 | > 7.00 | Cc1nc(NC(=O)NCCCC(=O)OC(C)(C)C)sc1-c1nc(-c2cccnc2)no1 [Example 125]
 | 6.30 to 7.00 | COC(C)(C)Cc1noc(-c2sc(NC(C)=O)nc2C)n1 [Example 84, N-{5-[3-(2-methoxy-2-methylpropyl)-1,2,4-oxadiazol-5-yl]-4-methyl-1,3-thiazol-2-yl}acetamide]
 | > 7.00 | CC(=O)Nc1nc(C)c(-c2nc(CC3CC3)no2)s1 [Example 80]
 | > 7.00 | CC(=O)Nc1nc(C)c(-c2nc(C3CCOC3)no2)s1 (stereo not shown) [Example 63]
 | > 7.00 | CC(=O)Nc1nc(C)c(-c2nc(C3CCCOC3)no2)s1 (stereo not shown) [Example 112]
 | 6.30 to 7.00 | CC(=O)Nc1nc(C)c(-c2nc(C(=O)C(C)(C)C)no2)s1 [Example 88]

pIC50 (read-out: IC50 value) | pIC50 [1] | Compound
7.06 | > 7.00 | CC(=O)Nc1nc(C)c(-c2nc(CCC(C)C)no2)s1 [Example 82]
 | 6.30 to 7.00 | CCOC(=O)c1noc(-c2sc(NC(C)=O)nc2C)n1 [Example 55, Ethyl-5-[2-(acetylamino)-4-methyl-1,3-thiazol-5-yl]-1,2,4-oxadiazol-3-carboxylate]
 | 6.30 to 7.00 | CC(=O)Nc1nc(C)c(-c2nc(CCO)no2)s1 [Example 13]
 | 6.30 to 7.00 | CC(=O)Nc1nc(C)c(-c2nc(-c3cc[nH]c(=O)c3)no2)s1 [Example 113]
 | > 7.00 | Cc1nc(NC(=O)NCCC(=O)NC(C)(C)CO)sc1-c1nc(-c2cccnc2)no1 [Example 149]
 | > 7.00 | CC(=O)Nc1nc(C)c(-c2nc(C(C)(C)CCO)no2)s1 [Example 73]
 | 6.30 to 7.00 | CC(=O)Nc1nc(C)c(-c2nc([C@H]3CCCO3)no2)s1 [Example 92]
 | 6.30 to 7.00 | CC(=O)Nc1nc(C)c(-c2nc(CCCO)no2)s1 [Example 33]
 | > 7.00 | Cc1nc(NC(=O)NCCC(=O)OC(C)(C)C)sc1-c1nc(CC(C)(C)CO)no1 [Example 157]
 | > 7.00 | CC(=O)Nc1nc(C)c(-c2nc(C3CCCCC3)no2)s1 [Example 9]
 | > 7.00 | Cc1nc(NC(=O)NCCC(=O)N(C)C)sc1-c1nc(-c2cccnc2)no1 [Example 131]
 | > 7.00 | CCOC(=O)[C@H]1CCCC1NC(=O)Nc1nc(C)c(-c2nc(-c3cccnc3)no2)s1 (stereo partly shown) [Example 144]
 | 6.30 to 7.00 | CC(=O)Nc1nc(C)c(-c2nc(N3CCOCC3)no2)s1 [Example 87, N-{4-methyl-5-[3-(morpholin-4-yl)-1,2,4-oxadiazol-5-yl]-1,3-thiazol-2-yl}acetamide]
 | > 7.00 | CCOC(=O)CCNC(=O)Nc1nc(C)c(-c2nc(-c3cccnc3)no2)s1 [Example 119]
 | 5.00 to 6.30 | Cc1nc(NC(=O)N2CCC(O)CC2)sc1-c1nc(-c2cccnc2)no1 [Example 137]
 | > 7.00 | CC(=O)Nc1nc(C)c(-c2nc(N3CCCC(O)C3)no2)s1 (stereo not shown) [Example 93]
 | 6.30 to 7.00 | COCCc1noc(-c2sc(NC(C)=O)nc2C)n1 [Example 22]
 | > 7.00 | Cc1nc(NC(=O)NCCCOC(C)(C)C)sc1-c1nc(-c2cccnc2)no1 [Example 130]
 | > 7.00 | COc1ncccc1-c1noc(-c2sc(NC(C)=O)nc2C)n1 [Example 16]
 | 5.00 to 6.30 | CC(=O)Nc1nc(C)c(-c2nc(C(=O)N3CCOCC3)no2)s1 [Example 72, N-{4-methyl-5-[3-(morpholin-4-ylcarbonyl)-1,2,4-oxadiazol-5-yl]-1,3-thiazol-2-yl}acetamide]
 | > 7.00 | CC(=O)Nc1nc(C)c(-c2nc(CC(C)(C)C(C)(C)O)no2)s1 [Example 106]

pIC50 (read-out: IC50 value) | pIC50 [1] | Compound
 | 6.30 to 7.00 | CC(=O)Nc1nc(C)c(-c2nc(-c3ccc(=O)[nH]c3)no2)s1 [Example 40]
 | 6.30 to 7.00 | CC(=O)Nc1nc(C)c(-c2nc(CCc3cccnc3)no2)s1 [Example 12]
 | > 7.00 | Cc1nc(NC(N)=O)sc1-c1nc(-c2cccnc2)no1 [Example 124]
 | > 7.00 | Cc1nc(NC(=O)NCCN)sc1-c1nc(-c2cccnc2)no1 [Example 138]
 | 5.00 to 6.30 | CC(=O)Nc1nc(C)c(-c2nc(CN3CCOCC3)no2)s1 [Example 75]
 | > 7.00 | Cc1nc(NC(=O)NCCCN2CCCC2=O)sc1-c1nc(CC(C)(C)CO)no1 [Example 159]
 | 6.30 to 7.00 | CC(=O)Nc1nc(C)c(-c2nc(C(=O)NC3COC3)no2)s1 [Example 96]
 | 6.30 to 7.00 | CC(=O)Nc1nc(C)c(-c2nc(N3CC[C@@H](O)C3)no2)s1 [Example 103]
 | > 7.00 | CC(=O)Nc1nc(C)c(-c2nc(-c3ccc(C)nc3)no2)s1 [Example 17]
 | > 7.00 | Cc1nc(NC(=O)NCCC(=O)NC(C)(C)C)sc1-c1nc(CC(C)(C)CO)no1 [Example 161]
 | > 7.00 | CC(=O)Nc1nc(C)c(-c2nc(-c3cccc(O)c3)no2)s1 [Example 27]
 | > 7.00 | CC(=O)Nc1nc(C)c(-c2nc(CS(C)(=O)=O)no2)s1 [Example 24]
 | > 7.00 | COc1ccc(-c2noc(-c3sc(NC(C)=O)nc3C)n2)cn1 [Example 4]
 | 5.00 to 6.30 | CNCc1noc(-c2sc(NC(C)=O)nc2C)n1 [Example 79]
 | > 7.00 | COCCCC(=O)Nc1nc(C)c(-c2nc(-c3cccnc3)no2)s1 [Example 128]
 | 5.00 to 6.30 | CC(=O)Nc1nc(C)c(-c2nc(-c3ccncc3)no2)s1 [Example 11]
 | > 7.00 | CC(=O)Nc1nc(C)c(-c2nc(CC(C)(CO)CO)no2)s1 [Example 42]
 | > 7.00 | COC(=O)c1cncc(-c2noc(-c3sc(NC(C)=O)nc3C)n2)c1 [Example 37]
 | > 7.00 | COCC(=O)Nc1nc(C)c(-c2nc(-c3cccc(CO)c3)no2)s1 [Example 173]
 | > 7.00 | Cc1nc(NC(=O)NCC(C)O)sc1-c1nc(-c2cccnc2)no1 (stereo not shown) [Example 175]
